From PubChem BioAssay AID2180 (Vanderbilt High Throughput Screening Facility, 2009)
The source made the active and inactive calls. No rule for the calls is given here.

Target: Metabotropic glutamate receptor 4 (Homo sapiens) (UniProt Q14833)
Test: PubChem AID 2180
Conditions: CHO hmGluR4/Gqi5, calcium mobilization, glutamate CRC fold-shift

Metabotropic glutamate receptor 4 (Homo sapiens), sequence (Q14833 whole entry, looked up): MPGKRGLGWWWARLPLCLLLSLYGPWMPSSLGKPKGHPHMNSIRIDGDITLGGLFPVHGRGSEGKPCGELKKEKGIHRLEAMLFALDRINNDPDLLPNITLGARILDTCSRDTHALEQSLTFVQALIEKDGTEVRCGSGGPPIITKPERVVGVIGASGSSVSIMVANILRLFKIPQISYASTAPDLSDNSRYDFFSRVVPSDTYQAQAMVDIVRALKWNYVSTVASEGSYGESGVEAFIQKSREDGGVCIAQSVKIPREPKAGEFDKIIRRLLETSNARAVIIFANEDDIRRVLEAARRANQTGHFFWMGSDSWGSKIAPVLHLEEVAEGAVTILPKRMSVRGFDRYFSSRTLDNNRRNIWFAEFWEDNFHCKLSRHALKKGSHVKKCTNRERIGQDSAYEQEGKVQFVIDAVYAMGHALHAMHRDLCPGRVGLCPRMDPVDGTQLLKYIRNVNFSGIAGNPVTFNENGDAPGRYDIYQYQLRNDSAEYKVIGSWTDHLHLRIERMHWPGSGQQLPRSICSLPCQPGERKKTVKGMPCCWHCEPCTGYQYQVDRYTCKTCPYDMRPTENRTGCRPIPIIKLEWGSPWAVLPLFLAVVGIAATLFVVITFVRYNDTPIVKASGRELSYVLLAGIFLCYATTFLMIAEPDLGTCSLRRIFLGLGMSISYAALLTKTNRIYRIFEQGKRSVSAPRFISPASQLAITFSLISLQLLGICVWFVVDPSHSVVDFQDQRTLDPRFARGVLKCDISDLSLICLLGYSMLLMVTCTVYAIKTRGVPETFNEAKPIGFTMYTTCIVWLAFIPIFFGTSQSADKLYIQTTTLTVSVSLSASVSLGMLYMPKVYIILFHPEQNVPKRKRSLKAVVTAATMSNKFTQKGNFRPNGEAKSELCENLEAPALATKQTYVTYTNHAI

## COc1cc(NC(=O)c2ccccn2)ccc1C
  Potency: 641 nM

## COc1cc(NC(=O)c2ccccn2)ccc1F
  Potency: 604 nM

## COc1ccc(NC(=O)c2ccccn2)cc1Cl
  Potency: 1600 nM

## O=C(Nc1ccc(F)c(C(F)(F)F)c1)c1ccccn1
  Potency: 5160 nM (inactive)

## COc1cc(NC(=O)c2ccccn2)ccc1Cl
  Potency: 381 nM

## O=C(Nc1ccc(Cl)c(C(F)(F)F)c1)c1ccccn1
  Potency: 6060 nM (inactive)

## O=C(Nc1cccc(Cl)c1)c1ccccn1
  Potency: 601 nM
